Literature values, collected in patent US20140100282A1, “INTRANASAL ADMINISTRATION OF PHARMACEUTICAL AGENTS FOR TREATMENT OF NEUROLOGICAL DISEASES” (priority 2012, published 2014).
Where two headings read alike, the source gives them in different places. Blank lines part the entries; values can stand above or below the molecule they belong to.

Tests used:
[1] = mouse, intravenous, autoradiography after 30 minutes
[2] = animal and humans
[3] = test system: glioblastoma cells
[4] = test system: protein phosphatase 2A (PP2A); conditions: murine primary neurons from wild-type and human tau transgenic mice
[5] = test system: tau; conditions: transgenic mice
[6] = test system: amyloid beta; conditions: monotherapy at doses that lead to activation of AMPK
[7] = intranasal

penetration into the brain or spinal cord through the BBB [1]: zero penetration
Molecule: NCCc1c[nH]cn1 [histamine]

absorption from the blood to the brain [2]: negligible
PP2A activity [4]: induces PP2A activity
Molecule: CN(C)C(=N)NC(=N)N [metformin]
migration of glioblastoma cells [3]: significantly inhibited
growth of glioblastoma cells ([3]; basal and leptin-stimulated): reduced basal and leptin-stimulated growth of glioblastoma cells in a dose-dependent manner
phosphorylation of Ser202 ([5]; 100 nM): decreased phosphorylation of Ser202 slightly
phosphorylation of Ser202 ([5]; 10 μM): significantly reduced
generation of amyloid beta species [6]: significantly increases

Molecule: insulin: intranasal insulin (20 and 40 IU)
cognition on Alzheimer Disease's Assessment Scale-cognitive subscale ([7]; 20 and 40 IU, compared with placebo): less decline in cognition
recall of episodic memories ([7]; 20 or 40 IU for 4 months, relative to placebo): improved recall of episodic memories
brain glucose uptake and utilization ([7]; over the 4-month period, compared with placebo): reduced decline in brain glucose uptake and utilization
